Test results published in patent US11628179B2, “Compounds for treating and preventing extracellular histone mediated pathologies” (priority 2017, dated 2023).
Several values for one entry are separate records, joined by “and”; a condition that tells them apart may be missing. Equal values may be shown once. Where a name gives a salt, the structure may show the parent alone.

What was measured:
[1] = mCBS vs CBS levels in phosphate buffered pH 7.5 clinical trial formulation stored at 2-8° C. (CAD); type: physicochemical; conditions: 2-8° C.
Sprague Dawley rats = system: Sprague Dawley rats
Protocol: This study examined toxicity from repeat IV administration of mCBS in rats over 7 days with doses up to 1000 mg/kg.
The acute tolerability and toxicity of β-O-methyl cellobioside sulfate was assessed in Sprague Dawley rats following daily intravenous dose administration for a period of seven days. A total of four groups of n=3 adult female rats were treated with 0, 100, 300 and 1000 mg/kg doses of mCBS in the form of the sodium salt (mCBS.Na) in this repeated dose study. […] The rats were then observed for 7 days prior to termination with gross necropsy and terminal haematology and biochemistry analyses. An additional group of n=3 male rats were also treated at the highest dose of 1000 mg/kg according to the same study design.

[2] = Non-specific binding to ultrafiltration device (phosphate buffer); type: in vitro ADME; conditions: for Concentration of mCBS, 200 ng/mL Post-filter / Concentration of mCBS, 200 ng/mL Pre-filter / Concentration of mCBS, 2000 ng/mL Post-filter / Concentration of mCBS, 2000 ng/mL Pre-filter: Phosphate Buffer pH 7.4, replicates and Mean
Protocol: (§1) Protein binding was assessed by an ultrafiltration method using Centrifree® Ultrafiltration Devices with a 30000 dalton molecular weight cut-off point. Briefly, known concentrations of mCBS (as free base) were added to human, rat and dog plasma samples and incubated for 20 min at 37° C. The samples were then subject to ultrafiltration to separate protein bound and unbound drug.
(§2) mCBS stock solutions (10 μL) were spiked into solutions of each test matrix (490 μL) as listed below in Table 9 to have a final concentration of 200 ng/mL & 2000 ng/m L.
(§3) Spiked samples were then incubated at 37° C. for 20 minutes in a water bath. Aliquots of the samples from each test group (500 μL) were transferred to the ultrafiltration devices (n=3) and centrifuged for 20 minutes at 1000 g. After centrifugation, aliquots of the ultrafiltrates (50 μL) were transferred to separate test tubes for extraction, alongside duplicate aliquots of the samples prior to ultrafiltration from each test group.
(§4) For quantification of samples before ultrafiltration, samples were analysed against a freshly prepared standard curve in plasma.

dog plasma proteins = assay: Plasma protein binding by ultrafiltration, dog plasma; type: in vitro ADME; conditions: for Concentration of mCBS, 200 ng/mL Post-filter / Concentration of mCBS, 200 ng/mL Pre-filter / Concentration of mCBS, 2000 ng/mL Post-filter / Concentration of mCBS, 2000 ng/mL Pre-filter: replicates and Mean
Protocol: as §1, §2, §3, §4

human RBCs = assay: Histone-induced RBC fragility / lysis under shear; type: cell-based
human platelets = assay: Histone-induced platelet aggregation; type: cell-based; conditions: compounds added prior to histones 150 μg/mL
mice = assay: In-vivo histone toxicity assay, organ damage markers at 4 hr; design: species or system mouse; conditions: 6.25, 25 and 100 mg/kg i.p. 10 min prior to histones 50 mg/kg i.v.; blood at 4 hr
Wistar rats = assay: Rat ischemia reperfusion tissue flap model; type: in vivo; conditions: 50 mg/kg i.p., 72 h
From the text: Rat ischemia reperfusion tissue flap model. The procedure employed is largely based on a previously described method (Askar, I., Oktay, M. F., Gurlek, A. & Bac, B. Protective effects of some antineoplastic agents on ischemia-reperfusion injury in epigastric island skin flaps. Microsurgery 26, 193-199, doi:10.1002/micr.20193 (2006)). Briefly, male Wistar rats were anaesthetised, locally depilated and a 3 cm by 6 cm fasciocutaneous flap was excised leaving the vascular pedicle intact. […] The clamp was removed […] post-application permitting returned blood flow to the flap. Test compounds (50 mg kg^−1) or saline were administered i.p. 5 min prior to clamp application and 5 min following its removal. The rats were monitored for a total experimental period of 72 h during which rats received additional compound or saline i.p. at 24 and 48 h post-op. The ‘Control No Clamp’ rats had the tissue flap excised and rubber placed underneath prior to re-suturing, however, the vessel was not clamped and they received saline at the same time points as the other rats. At the end of the experimental period the viability of the flaps was determined by the percentage of black necrotic or reddened areas vs pink viable areas. […]

C57BI/6 mice = assay: EAE model of multiple sclerosis; type: in vivo, mouse; conditions: 50 mg/kg i.p. daily day 0-9, 35 day window
Protocol: EAE Model of Multiple Sclerosis. EAE was induced in 8-12 week old C57BI/6 mice by subcutaneous immunisation with 115 μg/mouse myelin oligodendrocyte glycoprotein (MOG35-55 genscript) in Complete Freund's Adjuvant (Sigma) on day 1. 300 ng/mouse Pertussis toxin (List Biological Laboratories) in PBS was injected intra peritoneal (i.p.) on days 0 and 2. 50 mg/kg mCBS in PBS or PBS alone (vehicle) was given i.p. daily for day 0-9. Mice were monitored daily for signs of disease and were scored on a scale of 0-5 based on physical manifestations of disease. Mice were scored as follows: 0, clinically normal; 1, flaccid tail and/or ataxia; 2, hind limb weakness; 3, hind limb paralysis; 4, hind and front limb paralysis; and 5, moribund.

[3] = system: human microvascular endothelial cells (HMECs)
[4] = mCBS 100 μg/mL added prior to histones 400 μg/mL, 60 min

For `CO[C@@H]1O[C@H](COS(=O)(=O)O)[C@@H](O[C@@H]2O[C@H](COS(=O)(=O)O)[C@@H](OS(=O)(=O)O)[C@H](OS(=O)(=O)O)[C@H]2OS(=O)(=O)O)[C@H](OS(=O)(=O)O)[C@H]1OS(=O)(=O)O` [mCBS, β-O-methyl cellobioside sulfate], the “level in phosphate buffered pH 7.5 formulation” value (“level” for short) ([1]; T0 (months)) was 98.33 CAD %, the “level” value ([1]; T2) was 98.39 CAD % and the “level” value ([1]; T3) was 98.37 CAD %. For the same compound, the “level” value ([1]; T7) was 98.54 CAD %, the “level” value ([1]; T10) was 98.47 CAD % and the “level” value ([1]; T13) was 98.44 CAD %. For the same compound, the “level” value ([1]; T19) was 98.78 CAD %, the “stability when stored in aqueous buffered solution” value ([1]; over 18 months) was “high stability” and the tolerability (Sprague Dawley rats; daily IV bolus 100, 300 and 1000 mg/kg for 7 days) was “well tolerated at all dose levels”. For the same compound, the “MTD, as free base” value (Sprague Dawley rats; daily IV bolus for 7 days, corrected for purity and sodium content) was 815 mg/kg, the MTD (Sprague Dawley rats; daily IV bolus for 7 days, dose as sodium salt form) was 1000 mg/kg and the “Hematology and biochemistry parameters” value (Sprague Dawley rats; daily IV bolus up to 1000 mg/kg for 7 days) was “unremarkable”. For the same compound, the “Non-specific binding (NSB %)” value ([2]; 200 ng/mL) was 0.50%, the “Non-specific binding (NSB %)” value ([2]; 2000 ng/mL) was −1.97% and the “Concentration of mCBS, 200 ng/mL Post-filter” value [2] was 194 ng/mL and 202 ng/mL. For the same compound, the “Concentration of mCBS, 200 ng/mL Pre-filter” value [2] was 209 ng/mL and 195 ng/mL, the “Concentration of mCBS, 2000 ng/mL Post-filter” value [2] was 2190 ng/mL and 2160 ng/mL and the “Concentration of mCBS, 2000 ng/mL Pre-filter” value [2] was 1970 ng/mL. The “Concentration of mCBS, 200 ng/mL Post-filter” value ([2]; mean) was 201 ng/mL, the “Concentration of mCBS, 200 ng/mL Pre-filter” value ([2]; mean) was 202 ng/mL and the “Concentration of mCBS, 2000 ng/mL Post-filter” value ([2]; mean) was 2070 ng/mL. For the same compound, the “Concentration of mCBS, 2000 ng/mL Pre-filter” value ([2]; mean) was 2030 ng/mL, the Plasma protein binding (dog plasma proteins; 200 ng/mL) was 19.6% and the Plasma protein binding (dog plasma proteins; 2000 ng/mL) was 21.0%. The “Concentration of mCBS, 200 ng/mL Post-filter” value (dog plasma proteins) was 194 ng/mL and 169 ng/mL and 186 ng/mL, the “Concentration of mCBS, 200 ng/mL Pre-filter” value (dog plasma proteins) was 230 ng/mL and 225 ng/mL and the “Concentration of mCBS, 2000 ng/mL Post-filter” value (dog plasma proteins) was 1970 ng/mL and 1840 ng/mL and 1900 ng/mL. The “Concentration of mCBS, 2000 ng/mL Pre-filter” value (dog plasma proteins) was 2490 ng/mL and 2330 ng/mL, the “Concentration of mCBS, 200 ng/mL Post-filter” value (dog plasma proteins; mean) was 183 ng/mL and the “Concentration of mCBS, 200 ng/mL Pre-filter” value (dog plasma proteins; mean) was 228 ng/mL. The “Concentration of mCBS, 2000 ng/mL Post-filter” value (dog plasma proteins; mean) was 1903 ng/mL, the “Concentration of mCBS, 2000 ng/mL Pre-filter” value (dog plasma proteins; mean) was 2410 ng/mL and the “inhibition of histone-induced RBC lysis under shear” value (human RBCs; 0-200 μg/mL prior to 400 μg/mL histones 60 min, 100 mm/s, 40× repetitions) was “inhibit histone-induced lysis under shear in a dose-dependent manner”. The “reversal of histone-induced RBC susceptibility to lysis” value (human RBCs; histones 400 μg/mL 55 min, then mCBS 5 min) was “near complete inhibition”, the histone-induced platelet aggregation (human platelets) was “significantly reduced” and the “protection from histone-induced organ damage (LDH, ALT, creatinine)” value (mice) was “protects animals from histone-mediated injury”. For the same compound, the “viable area of the skin flap” value (Wistar rats) was “consistently and significantly increased the viable area of the skin flap”, the “protection from EAE development” value (C57BI/6 mice) was “substantial protection” and the “effect of increasing concentration on viable/dead cells” value ([3]; histones 400 μg/mL, increasing concentrations of mCBS) was “an increase in viable cells (Calcein-AM uptake) and a reduction in dead cells (PI uptake)”. The “HMECs reverted from PI uptake to PI exclusion and calcein-AM uptake” value ([3]; histones 400 μg/ml 60 min, then mCBS 100 μg/ml for 10 min) was “approximately 30%”, the “protection from histone-mediated injury” value ([3]; mCBS 25 μg/mL + histones 400 μg/mL) was “reduced level of protection” and the “dead cells (PI uptake)” value [3, 4] was 20%. The “viable cells (calcein-AM)” value [3, 4] was 74%.
